Measurements published in patent US8148368B2, “7-nitro-2-(3-nitro phenyl)-4H-3,1-benzoxazin-4-one or derivatives thereof for treating or preventing antiviral infections” (priority 2010, dated 2012).

Columns and labels:
[1] = system: HCV sub-genomic replicon in FCA-4 cells; assay: Antiviral effect in FCA-4 HCV 1b sub-genomic replicon cells, RT-PCR of HCV RNA; assay type: cell-based, hepatitis C virus
Text: FCA-4 sub genomic replicon was bicistronic construct composed of the HCV IRES (nucleotides 1 to 377 of the 5′NCR); the neomycin phosphotransferase (neo) gene; the encephalomyocarditis IRES, which mediates the translation of HCV nonstructural proteins NS3 through NS5; and the 3′NCR as shown in FIG. 2. […] FCA-4 sub-genomic replicon consists of single adaptive mutation and a deletion of a serine residue at position 1176 (Guo et al, 2001).
The bicistronic RNA molecule contains the HCV IRES and a few core-coding sequences, which are followed by neomycin phosphotransferase gene (Neor). These sequences are followed by the encephalomyocarditis virus IRES placed in front of HCV sequences encoding nonstructural protein NS3 to NS5B, terminating at the HCV 3NCR.
To determine the antiviral effect against HCV, FCA 4 cells were seeded in six well plates. After 24 h, media containing 20 μM of test compound was added to the plates. Cells were incubated at 37° C. in CO2 incubator for additional 48 h. At the end of the incubation, cells were harvested, RNA was extracted and cDNA were generated by oligo dT priming cDNA was amplified by PCR using primers specific to the 5′ UTR and NS5B gene of HCV. Amplification of GAPDH mRNA served as an internal control.

[2] = system: HCV 3a genotype in MDBK cells; assay: Combination with interferon-α against HCV 3a genotype in MDBK cells, real time quantitative RT-PCR; assay type: cell-based, hepatitis C virus; details: interferon-α 5 IU/well, 6 hrs pre-incubation, HCV 3a 2×10^4 copies per well, 18 hrs
Protocol: Surprising synergism was recorded when Compound 1 was combined with Interferon alpha. […] MDBK cells were incubated for 6 hrs with compounds and interferon alone, or combination of compound and interferon in a 96-well plat. After 6 hrs cells were infected with 2×10^4 copies of HCV 3a genotype per well and incubated for additional 18 hrs. At the end of incubation period, total RNA was extracted by Gentra kit, and the levels of HCV RNA remaining were determined, by real time Quantitative RT-PCR assay and are shown as percentage of HCV RNA survival in cells. Results are represented as the average and standard error for three independent experiments.

[3] = system: HCV; details: ribavirin alone; cited from earlier work

Structure (SMILES)	GAPDH mRNA expression (internal control) ([1]; 20 μM, 48 h, FCA 4 cells)	HCV RNA expression ([1]; 20 μM, 48 h, FCA 4 cells, RT-PCR (5′ UTR and NS5B primers))	antiviral suppression in relation to cytotoxicity ([1]; FCA4 cells)	concentration showing maximum reduction of HCV expression ([1]; dose dependent, FCA4 sub-genomic replicon, 48 h, FIG. 3)	effect of combination with interferon-α on HCV RNA [2]	patients with serum amino transferase levels reduced to normal [3]
O=c1oc(-c2cccc([N+](=O)[O-])c2)nc2cc([N+](=O)[O-])ccc12 [Compound 1, 7-nitro-2-(3-nitrophenyl)-4H-3,1-benzoxazin-4-one]	remains unaffected	inhibited HCV RNA expression significantly	independent of cytotoxicity	10 µM	synergistic effect	
NC(=O)c1ncn([C@@H]2O[C@H](CO)[C@@H](O)[C@H]2O)n1 [Ribavirin, 1-β-D-ribofuranosyl-1-1,2,4-triazole-3-carboxamide]						40%
